Test results published in PubChem BioAssay (NCI).
Several values for one entry are separate records, joined by “and”; a condition that tells them apart may be missing. Equal entries are not always repeated.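 Cells were grown in 96-well plates and exposed to each compound for 48 hours at five concentrations; endpoints were interpolated linearly between bracketing concentrations, or set to the highest concentration if not reached. GI50: concentration for 50% inhibition of growth. TGI is the concentration that stops growth completely.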 *1 amine or outer side, *2 acyl side, *3 side chain or, on linkers, in order; H or OH if unused. Where a SMILES comes first, the peptide text is derived from it. Bridges are numbered along the chain shown (N, C = ends). [ ]: non-standard residue; d: D form. The star is where a group is joined. ξ: configuration not given here. X34 = O=C(C(CCCCNO[*:3])N[*:1])[*:2]; Fmoc = O=C(OCC1c2ccccc2-c2ccccc21)*; ξW = NC(Cc1c[nH]c2ccccc12)C(=O)O; ξP = O=C(O)C1CCCN1

Key:
Assay in all cases: inhibition of tumour cell growth, NCI panel, 48 h
NCI-H226 lung = tested on: NCI-H226 lung
RXF 393 renal = tested on: RXF 393 renal
OVCAR-3 ovarian = tested on: OVCAR-3 ovarian
M14 melanoma = tested on: M14 melanoma
EKVX NSCLC = tested on: EKVX NSCLC
PC-3 prostate = tested on: PC-3 prostate
SNB-19 CNS = tested on: SNB-19 CNS
UACC-62 melanoma = tested on: UACC-62 melanoma
IGROV1 ovarian = tested on: IGROV1 ovarian
786-0 renal = tested on: 786-0 renal

Row | Structure (SMILES) | TGI (NCI-H226 lung) | TGI (RXF 393 renal) [µM] | TGI (OVCAR-3 ovarian) | TGI (M14 melanoma) | TGI (EKVX NSCLC) | TGI (PC-3 prostate) | TGI (SNB-19 CNS) | TGI (UACC-62 melanoma) | TGI (IGROV1 ovarian) | TGI (786-0 renal) | GI50 (OVCAR-3 ovarian) | GI50 (M14 melanoma) | GI50 (EKVX NSCLC) | GI50 (PC-3 prostate) | GI50 (SNB-19 CNS) | GI50 (UACC-62 melanoma)
1 | COc1cc(O)c(/C=N/N=C(\N)NO)c(OC)c1 | > 10 µM | > 10 | > 10 µM | > 10 µM | > 10 µM | > 10 µM | > 10 µM | > 10 µM | > 10 µM | > 10 µM |  |  |  |  |  | 
2 | O=C(CCCCCCCCC(=O)NN1C(=O)/C(=C\c2ccc(O)c(O)c2)SC1c1ccc(Cl)cc1)NN1C(=O)/C(=C\c2ccc(O)c(O)c2)SC1c1ccc(Cl)cc1 (stereo unspecified) | > 100 µM | 46.2 | > 100 µM | > 100 µM | > 100 µM | > 100 µM | > 53.1 µM | 60.2 µM | > 29.5 µM | 34.4 µM |  |  |  |  |  | 
3 | S=C(N/N=C\C=N/NC(=S)N1CCCCC1)N1CCCCC1 | > 68.1 µM | 6.06 | 78.2 µM | > 100 µM | > 100 µM | > 100 µM | > 100 µM | > 100 µM | > 52.7 µM | > 31.6 µM |  |  |  |  |  | 
4 | CN1C(=O)C2C(=O)N(Cc3ccccc3)CC(=O)N2c2cccnc21 (stereo unspecified) | > 100 µM | > 100 | > 100 µM | > 100 µM | > 100 µM | > 100 µM | > 100 µM | > 100 µM | > 100 µM | > 100 µM |  |  |  |  |  | 
5 | Nc1ccc2nc(-c3ccccn3)c(-c3ccccn3)nc2c1 | > 100 µM | > 100 | > 100 µM | > 100 µM | > 100 µM | > 100 µM | > 100 µM | > 100 µM | > 100 µM | > 100 µM |  |  |  |  |  | 
6 | COc1cc(-c2cc(=O)c3cc4c(cc3[nH]2)OCO4)cc(OC)c1O | > 10 µM | > 10 | > 10 µM | > 10 µM | > 10 µM | > 10 µM | > 10 µM | > 10 µM | > 10 µM | > 10 µM |  |  |  |  |  | 
7 | CN(CCC#N)c1ccc(/C=C2\SC(=S)NC2=O)cc1 | > 100 µM | 96.9 | 67.9 µM | > 100 µM | > 100 µM | > 100 µM | > 100 µM | 47.3 µM | > 100 µM | > 100 µM |  |  |  |  |  | 
8 | COCOC1/C=C/CCCC#C[C@H](C)C(=O)CC1 (stereo partly specified) | 35 µM | 23.4 | 15.2 µM | 21 µM | 23.1 µM | 21.5 µM | 32.6 µM | 22.6 µM | 22.7 µM | 13.5 µM |  |  |  |  |  | 
9 | CC(=O)OCC1OC(OC(C)(C)CC/C=C(\C)[C@@H]2C/C=C(\C)CC/C=C(\C)CC2)C(O)C(O)C1OC(C)=O (stereo partly specified) | > 100 µM and 16.2 µM | > 100 | > 100 µM and 28.6 µM | > 100 µM and 47.8 µM | > 100 µM and 37.3 µM | > 94.8 µM and 25.8 µM | > 100 µM and 25 µM | > 100 µM and 30.6 µM | > 79.1 µM and 32 µM | 96.8 µM and 58.8 µM | 53.3 µM and 15.3 µM | 60 µM and 19.7 µM | 43.6 µM and 19 µM | 35.8 µM and 13.1 µM | 61.5 µM and 12.5 µM | > 92.8 µM and 15.3 µM
10 | CC(CN1c2ccccc2Sc2ccccc21)N(C)C (stereo unspecified) | 34.5 µM | 37.5 | 31.1 µM | 33.9 µM | 58.7 µM | 31.2 µM | 33 µM | 33.9 µM | 34.7 µM | 27.9 µM |  |  |  |  |  | 
11 | CSc1nc(Cl)c2c(n1)Sc1nc3cc4c(cc3n1C2O)OCCO4 (stereo unspecified) | 0.889 µM | 19.3 | 2.46 µM | 15.5 µM | 36.3 µM | 65.2 µM | 3.99 µM | 7.87 µM | 18 µM | 14.9 µM |  |  |  |  |  | 
12 | O=C(CN1c2ccccc2Sc2ccccc21)N1CCNCC1 | > 100 µM | > 100 | > 100 µM | > 100 µM | > 100 µM | > 100 µM | > 100 µM | > 100 µM | > 100 µM | > 100 µM |  |  |  |  |  | 
13 | CCOc1cc(NC(C)=O)ccc1C(=O)NNC(=O)c1ccccc1OC(C)=O | > 59.3 µM | > 30.2 | > 100 µM | 26.6 µM | > 70.4 µM | > 100 µM | > 100 µM | 37 µM | > 100 µM | > 90.3 µM |  |  |  |  |  | 
14 | O=C1/C(=C/c2ccccc2)N=C(c2ccccc2)N1n1c(-c2ccccc2)nc2ccccc2c1=O | > 100 µM | > 100 | > 100 µM | > 100 µM | > 100 µM | > 100 µM | > 100 µM | > 100 µM | > 100 µM | > 100 µM |  |  |  |  |  | 
15 | Nc1nc2cc3nc(N)c(N)nc3cc2nc1N | > 100 µM | > 100 | > 100 µM | > 100 µM | > 100 µM | > 100 µM | > 100 µM | > 100 µM | > 100 µM | > 100 µM |  |  |  |  |  | 
16 | C[N+]1=C2[B-](C(C)(C)C)=[N+](C(C)(C)C)[B-]2(C(C)(C)C)[N+](C)=C2[B-](C(C)(C)C)=[N+](C(C)(C)C)[B-]21C(C)(C)C (stereo unspecified) | > 100 µM | > 100 | > 100 µM | > 100 µM | > 100 µM | > 100 µM | > 100 µM | > 100 µM | > 100 µM | > 100 µM |  |  |  |  |  | 
17 | O=c1nc(N2CCN(c3ccccc3)CC2)ccn1C1OC(CO)C(O)C1O (stereo unspecified) | > 100 µM | > 100 | > 100 µM | > 100 µM | > 100 µM | > 100 µM | > 100 µM | > 100 µM | > 100 µM | > 100 µM |  |  |  |  |  | 
18 | OC1C2[C@@H](O)CCCN2C[C@@H](O)[C@H]1O (stereo partly specified) | > 100 µM | > 100 | > 100 µM | > 100 µM | > 100 µM | > 100 µM | > 100 µM | > 100 µM | > 100 µM | > 100 µM |  |  |  |  |  | 
19 | NC(=O)CNC(=O)C1CCCN1C(=O)C1CCCCNOC(=O)CC[C@@H](NC(=O)OCC2c3ccccc3-c3ccccc32)C(=O)NC(Cc2c[nH]c3ccccc23)C(=O)N1 (stereo partly specified) (Fmoc-[dE][ξW][X34][ξP]G-NH2; ester 1-3) | > 100 µM | > 100 | > 100 µM | > 100 µM | > 100 µM | > 100 µM | > 100 µM | > 100 µM | > 100 µM | > 100 µM |  |  |  |  |  | 
20 | CN(C)CCCOc1nc2c(c(=O)n(C)c(=O)n2C)n1C (tested in a mixture with another compound) | 47.7 µM | > 100 | > 100 µM | > 100 µM | > 100 µM | > 100 µM | > 100 µM | 6.42 µM | > 100 µM | > 100 µM |  |  |  |  |  | 
21 | CC(C)(N=NC(C)(C)C(=O)NCCO)C(=O)NCCO | > 100 µM | > 100 | > 100 µM | > 100 µM | > 100 µM | > 100 µM | > 100 µM | > 100 µM | > 100 µM | > 100 µM |  |  |  |  |  | 
22 | O=C(O)CN(CCNC(=O)OCC1c2ccccc2-c2ccccc21)CCNC(=O)OCC1c2ccccc2-c2ccccc21 | 81.2 µM | 67.7 | 35.6 µM | 73.4 µM | 52.5 µM | 49 µM | 73.4 µM | 47.5 µM | 45.7 µM | 36 µM |  |  |  |  |  | 
23 | CC(=O)OCC(C)C1=C(O)C(=O)C2(C)C/C=C(/C)CC/C=C(\C)CCC(O)C(C)CCC12 (stereo unspecified) | 33.5 µM | 27.4 | 29.3 µM | 33.8 µM | 32 µM | 38.1 µM | 33.9 µM | 36.8 µM | 33 µM | 32 µM |  |  |  |  |  | 
24 | CCN1CC2=C(NC(=S)NC2c2ccc(Cl)cc2)/C(=C/c2ccc(Cl)cc2)C1 (stereo unspecified) | > 100 µM | > 100 | > 100 µM | > 100 µM | > 100 µM | > 100 µM | > 100 µM | > 100 µM | > 100 µM | > 100 µM |  |  |  |  |  | 
25 | CC(C)c1ccc2[nH]c(O)c(-c3[nH]c4ccccc4c3N=O)c2c1 | 29.4 µM | 6.66 | 20.7 µM | 23.6 µM | 16.6 µM | 19.4 µM | 36.1 µM | 20.6 µM | 21.2 µM | 16.8 µM |  |  |  |  |  | 
26 | Cc1nnc2n1N=C(c1cc(F)c(Cl)cc1Cl)/C(=C/c1ccc(Cl)cc1)S2 | 63.4 µM | 40.5 | 25.2 µM | 43 µM | 28.6 µM | 80.6 µM | > 100 µM | 52.8 µM | 53.9 µM | 36.8 µM |  |  |  |  |  | 
27 | CC(C)Sc1nc(C#N)cc2c1CCCC2 | > 100 µM | 87.9 | > 100 µM | > 100 µM | > 100 µM | > 100 µM | > 100 µM | > 100 µM | > 100 µM | > 100 µM |  |  |  |  |  | 
28 | CCCCCCCCCCCCCCCCCCNc1ccn(C2OC(COP(=O)(O)OCC3OC(n4ccc(NC(=O)CCCCCCCCCCCCCCCCC)nc4=O)C(OC(C)=O)C3OC(C)=O)C(OC(C)=O)C2OC(C)=O)c(=O)n1 (stereo unspecified) | > 100 µM | > 100 | > 100 µM | > 100 µM | > 100 µM | > 100 µM | > 100 µM | > 100 µM | > 100 µM | > 100 µM |  |  |  |  |  | 
